Results on eight compounds are retold here after PubChem BioAssay (NCI).

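Protocol summary: plate cells (96-well), add compound at 5 concentrations, incubate 48 h, interpolate endpoints linearly. GI50 marks 50% less growth. The concentration for full growth arrest is given as TGI.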

Some test systems named below: OVCAR-4 ovarian; TK-10 renal; SF-539 CNS; U251 CNS; SK-MEL-5 melanoma; NCI-H23 lung; HOP-62 NSCLC; HT29 colon; SR leukemia; MALME-3M melanoma.
What all share (assay): NCI-60 cell line screen, 48 h

`CCn1c(CN2CCN(Cc3ccccc3)CC2)nc2cc(NC(=O)c3cccs3)ccc21`: the GI50 in the assay with OVCAR-4 ovarian was 16.4 µM; in the assay on TK-10 renal, 24 µM; with SF-539 CNS it was 14.6 µM; with U251 CNS it was 13.6 µM; with SK-MEL-5 melanoma, 11.5 µM; with NCI-H23 lung it was 19.9 µM. For the same compound, the GI50 is 17.7 µM in the assay with HOP-62 NSCLC, 16.8 µM with HT29 colon, 12.6 µM with SR leukemia and 18.6 µM in the assay with MALME-3M melanoma. Also, the TGI in the assay on OVCAR-4 ovarian was determined as 86.4 µM; in the assay with TK-10 renal it was 70.4 µM; in the assay with SF-539 CNS, 28.4 µM; in the assay on U251 CNS, 32.3 µM; with SK-MEL-5 melanoma, 24.1 µM; with NCI-H23 lung it was 57 µM. For the same compound, the TGI came to 38 µM with HOP-62 NSCLC, 47.3 µM in the assay with HT29 colon, 39.1 µM in the assay on SR leukemia and 37.3 µM with MALME-3M melanoma.
As for `O=C(c1ccco1)c1nc2cc(Cl)ccc2[n+]([O-])c1C(F)(F)F`, the GI50 is 29.2 µM with OVCAR-4 ovarian; 44.1 µM in the assay on TK-10 renal; greater than 100 µM with SF-539 CNS; 70.9 µM with U251 CNS; 20.3 µM in the assay on SK-MEL-5 melanoma; 42 µM with NCI-H23 lung. The GI50 was 76.7 µM in the assay with HOP-62 NSCLC, 52.9 µM in the assay with HT29 colon, 17.1 µM with SR leukemia and 47.9 µM in the assay with MALME-3M melanoma. The TGI with OVCAR-4 ovarian was 75.7 µM; with TK-10 renal, greater than 100 µM; with SF-539 CNS, greater than 100 µM; in the assay on U251 CNS, greater than 100 µM; with SK-MEL-5 melanoma, 49.6 µM; in the assay on NCI-H23 lung, greater than 100 µM. Further, the TGI is greater than 100 µM in the assay on HOP-62 NSCLC, greater than 100 µM in the assay with HT29 colon, 44.3 µM with SR leukemia and greater than 100 µM in the assay with MALME-3M melanoma.
With `C/C(=N\Nc1cc(C)c2cc(C)ccc2n1)c1ccccn1`, the GI50 in the assay with OVCAR-4 ovarian was 0.0303 µM; in the assay with SF-539 CNS it was 0.0573 µM; in the assay on U251 CNS, less than 0.0393 µM; with SK-MEL-5 melanoma, 0.0827 µM; in the assay with NCI-H23 lung, 0.139 µM; with HOP-62 NSCLC, 0.055 µM. Also, the GI50 is less than 0.0407 µM in the assay with HT29 colon, less than 0.031 µM in the assay on SR leukemia and 0.123 µM with MALME-3M melanoma. The TGI turned out to be 0.367 µM in the assay with OVCAR-4 ovarian; 2.82 µM in the assay on TK-10 renal; 0.263 µM with SF-539 CNS; 1.16 µM in the assay with U251 CNS; 1.27 µM with SK-MEL-5 melanoma; 10.2 µM in the assay with NCI-H23 lung. Also, the TGI in the assay on HOP-62 NSCLC came to 1.41 µM; in the assay with HT29 colon, 1.65 µM; in the assay on SR leukemia, 0.491 µM; in the assay with MALME-3M melanoma, 1.27 µM.
As for `CCOC(=O)N1CCc2cc(OC)c(OC)c3c2c1cc1cc(OC)c(OC)cc13`, the TGI with OVCAR-4 ovarian was greater than 95.3 µM; in the assay with TK-10 renal, greater than 100 µM; with SF-539 CNS it was 9.17 µM; in the assay on U251 CNS, 67.1 µM; in the assay on SK-MEL-5 melanoma, 32.9 µM; with NCI-H23 lung, 55.6 µM. Moreover, the TGI is greater than 83.6 µM with HOP-62 NSCLC, 21.6 µM with HT29 colon, greater than 38.6 µM with SR leukemia and 51.5 µM in the assay with MALME-3M melanoma.
Regarding `O=C(Nc1cccc(Cl)c1)c1ccc(NC2=C(Cl)C(=O)N(Cc3ccccc3)C2=O)cc1`, the GI50 in the assay with OVCAR-4 ovarian is 19.4 µM; in the assay with TK-10 renal, 16.4 µM; in the assay on SF-539 CNS, 20.4 µM; in the assay with U251 CNS, 15.5 µM; in the assay with SK-MEL-5 melanoma, 7.81 µM; in the assay with NCI-H23 lung, 13.6 µM. The GI50 is 18.2 µM in the assay on HOP-62 NSCLC, 8.43 µM with HT29 colon, 1.39 µM with SR leukemia and 24 µM in the assay on MALME-3M melanoma. The TGI in the assay with OVCAR-4 ovarian is greater than 61.7 µM; in the assay on TK-10 renal, 49.5 µM; in the assay on SF-539 CNS it was 36.3 µM; in the assay with U251 CNS, greater than 48.1 µM; in the assay on SK-MEL-5 melanoma, 19.4 µM; with NCI-H23 lung, 27 µM. The TGI in the assay on HOP-62 NSCLC is 33 µM; with HT29 colon, greater than 100 µM; in the assay with SR leukemia it was 3.82 µM; in the assay on MALME-3M melanoma, 78.5 µM.
Consider `COc1cc(-c2nn(-c3cccc(NC(=O)Nc4cc(C(F)(F)F)cc(C(F)(F)F)c4)c3)cc2-c2ccncc2)ccc1Cl`, for which the GI50 is 0.698 µM in the assay on OVCAR-4 ovarian; 0.719 µM with TK-10 renal; 0.836 µM with SF-539 CNS; 0.36 µM in the assay with U251 CNS; 0.629 µM in the assay with SK-MEL-5 melanoma; 0.59 µM in the assay on NCI-H23 lung. In addition, the GI50 in the assay with HOP-62 NSCLC is 0.749 µM; with HT29 colon, 0.619 µM; with SR leukemia, 0.8 µM; in the assay on MALME-3M melanoma, 0.677 µM. In addition, the TGI with OVCAR-4 ovarian turned out to be 12.9 µM; with TK-10 renal it was 2.46 µM; with SF-539 CNS, 1.75 µM; in the assay on U251 CNS it was 1.13 µM; with SK-MEL-5 melanoma it was 1.3 µM; in the assay with NCI-H23 lung it was 3.94 µM. Further, the TGI with HOP-62 NSCLC worked out at 1.55 µM; in the assay with HT29 colon, 1.68 µM; with SR leukemia, 2.99 µM; in the assay with MALME-3M melanoma, 2 µM.
For `CC(C)[C@H](CO)Nc1nc(Nc2ccc(C(=O)NCCNS(=O)(=O)c3cccc4c(N(C)C)cccc34)c(Cl)c2)c2ncn(C(C)C)c2n1`, the GI50 is 7.71 µM in the assay on OVCAR-4 ovarian; 7.62 µM in the assay with TK-10 renal; 1.68 µM in the assay with SF-539 CNS; 2.72 µM in the assay with U251 CNS; 2.07 µM in the assay on SK-MEL-5 melanoma; 3 µM in the assay on NCI-H23 lung. Further, the GI50 in the assay on HOP-62 NSCLC was 3.69 µM; with HT29 colon it was 2.5 µM; with SR leukemia it was 1.87 µM; in the assay on MALME-3M melanoma, greater than 25.5 µM. Moreover, the TGI is greater than 100 µM in the assay on OVCAR-4 ovarian; greater than 100 µM in the assay on TK-10 renal; 4.39 µM in the assay with SF-539 CNS; greater than 100 µM in the assay on U251 CNS; 5.16 µM with SK-MEL-5 melanoma; greater than 36.2 µM in the assay with NCI-H23 lung. In addition, the TGI with HOP-62 NSCLC is greater than 100 µM; in the assay with HT29 colon, greater than 41.8 µM; in the assay with SR leukemia it was greater than 24.9 µM; in the assay on MALME-3M melanoma, greater than 100 µM.
Regarding `CC(C)(O)CS(=O)(=O)Nc1ccc2c(c1)CCN(C(=O)COc1cccnc1)C2`, the GI50 in the assay with OVCAR-4 ovarian is greater than 100 µM; with TK-10 renal it was greater than 100 µM; in the assay with SF-539 CNS, less than 0.0224 µM; with U251 CNS it was greater than 62.7 µM; with SK-MEL-5 melanoma it was greater than 100 µM; with NCI-H23 lung it was greater than 100 µM. In addition, the GI50 with HOP-62 NSCLC is 99.4 µM; with HT29 colon it was 0.743 µM; with SR leukemia, greater than 45.7 µM; in the assay on MALME-3M melanoma, greater than 100 µM. For the same compound, the TGI with OVCAR-4 ovarian, in the assay on TK-10 renal, in the assay with SF-539 CNS, with U251 CNS, in the assay with SK-MEL-5 melanoma and in the assay on NCI-H23 lung was greater than 100 µM each time. For the same compound, the TGI in the assay with HOP-62 NSCLC, in the assay with HT29 colon, in the assay with SR leukemia and in the assay on MALME-3M melanoma was greater than 100 µM each time.
